Measurements from article PMC8742467, “Therapeutical interference with the epigenetic landscape of germ cell tumors: a comparative drug study and new mechanistical insights” (Clinical Epigenetics, 2022).
pEC50: −log10 of the molar value.

Columns and labels:
[1] = test system: GCT cell lines; assay: XTT cell viability assay, GCT cell lines (pre-screen / summary); assay type: cell-based, Human; details: first pre-screen, XTT; read-out: EC50
Method: The […] (XTT) assays were performed as described previously. In summary, for GCT and fibroblast cell lines 5 × 10^3 cells (3 × 10^3 for UC, PCa and RCC cell lines) per 96-well were seeded and different drug concentrations (see Additional file 2: Fig. S2, Additional file 3: Fig. S3) or corresponding solvents were added to the cells the following day. For drug details see Additional file 12: Table S2 C. Each condition was analyzed in four technical replicates and EC50 values were calculated by GraphPad Prism v8.

[2] = test system: CC (JAR); assay: Flow cytometry apoptosis (Annexin V/PI), CC; assay type: cell-based, Human; details: EC50, 16 h
Method: (§1) For Annexin V/PI staining, cells were washed with Annexin V Binding Buffer before being resuspended in 70 µl Annexin V Binding Buffer and 2.5 μl Annexin V FITC-conjugate (both Miltenyi Biotec, Bergisch Gladbach, Germany) and 15 µg PI (Sigma-Aldrich, Taufkirchen, Germany) and incubated in the dark at room temperature for 15 min. 500 µl of Annexin V Binding Buffer was added before measurement. For the cell cycle analysis, cells were washed with PBS (phosphate buffered saline), fixed by ice cold 70% ethanol and stained with 2 µg/ml PI and 200 µg/ml RNaseA (Quiagen, Hilden, Germany 100 mg/ml) in PBS shortly before every measurement. At least 5 × 10^4 cells were counted and analyzed using the MACSQuant software v 2.13.0.

[3] = test system: YST (GCT72); assay: Flow cytometry apoptosis (Annexin V/PI), YST; assay type: cell-based, Human; details: EC50, 16 h
Method: as §1

[4] = test system: fibroblast control cells; assay: Flow cytometry apoptosis (Annexin V/PI), fibroblasts; assay type: cell-based, Human; details: EC50, 16 h
Method: as §1

[5] = test system: GCT cells; assay: Flow cytometry cell cycle (PI), GCT cells; assay type: cell-based, Human; details: EC50, 16 h
Method: as §1

[6] = test system: 2102EP-R; assay: Flow cytometry apoptosis (Annexin V/PI), 2102EP-R; assay type: cell-based, Human; details: EC50, 16 h, compared to the parental cell line
[7] = test system: histone modifications in 2102EP cells; assay: Mass spectrometry analysis of histone modifications (Mod Spec); assay type: cell-based, Human
Method: 2102EP cells were treated with the EC50 concentrations for Quisinostat, JIB-04, Chaetocin, MZ-1, LP99, PRT4165, GSK343 and DMSO as solvent control. The cells were harvested via trypsinization after 16 h. The mass spectrometric analysis of histone modifications was outsourced to the Mod Spec service by Active Motif (Carlsbad, CA, USA). Histone extraction and mass spectrometric analysis was performed as described previously. Raw data were transformed into z-scores as the input. The heatmap was generated in R using ‘pheatmap’ with default settings and provided by Active Motif.

[8] = test system: transcriptome of 2102EP cells; assay: RNA sequencing; assay type: cell-based, Human; details: 16 h
Method: Transcriptome analysis has been performed as previously described at the core facility ‘Genomics & Transcriptomics’ (Prof. Dr. Karl Köhrer, Biomedical Research Center, Heinrich Heine University, Düsseldorf, Germany) and has been publicly shared via GEO (https://www.ncbi.nlm.nih.gov/geo/, GSE189472). RNA samples were quantified and measured as previously described. Statistical analyses were performed using the ‘Differential Expression in two groups’ tool (version 1.02) (Qiagen) and the resulting p values were corrected for multiple testing by false discovery rate (FDR). Accompanying PCA and heatmap were generated using Qlucore Omics Explorer 3.7 (Qlucore AB, Lund, Sweden). Values of solvent controls wereaveraged from the studies GSE189472, GSE190792 and GSE190022 [95].

[9] = test system: phosphorylated kinase targets in 2102EP cells; assay: Proteome Profiler Human Phospho-Kinase Array; assay type: cell-based; details: 16 h
Method: For the detection of phosphorylated kinase targets, the Proteome Profiler Human Phospho-Kinase Array Kit (R&D Systems, Abingdon, UK) was used according to the manufacturer’s instructions. The ChemiDoc Imaging System (Bio-Rad Laboratories, Feldkirchen, Germany) was used for detection. 2102EP cells were harvested after 16 h of treatment with the epi-drugs. Pixel density was analyzed using Fiji ImageJ 1.53c.

[10] = 2102EP cells, Mod Spec raw data
[11] = sorted data log2>±1.5, FDR p<0.05

Cc1ccc(-n2sc3ccccc3c2=O)cc1 [PBIT]
pEC50 [1]: ≥ 4.30
apoptosis induction in JAR [2]: negligible
apoptosis induction in GCT72 [3]: negligible
apoptosis induction in fibroblast control cells [4]: only a weak apoptosis induction
cell cycle phase accumulation in GCT cells [5]: accumulated in the G0/G1 phase

Cc1cc(=O)n(C)c2cc(N3C(=O)CC[C@H](NS(=O)(=O)CC(C)C)[C@H]3c3ccc(Cl)cc3)ccc12 [LP99]
pEC50 [1]: ≥ 4.30
apoptosis induction in JAR [2]: negligible
apoptosis induction in GCT72 [3]: negligible
apoptosis induction in 2102EP-R [6]: did not induce apoptosis
cell cycle phase accumulation in GCT cells [5]: accumulated in the G0/G1 phase
H1.4: K25AC, % of peptide pool [7, 10]: 0.009028%
H1.4: K25ME1, % of peptide pool [7, 10]: 2.269%
H1.4: K25ME2, % of peptide pool [7, 10]: 0.02267%
H1.4: K25ME3, % of peptide pool [7, 10]: 0.00557%
H1.4: K25UN, % of peptide pool [7, 10]: 97.6933%
H2A1: K13AC, % of peptide pool [7, 10]: 0.01093%
H2A1: K13UN, % of peptide pool [7, 10]: 99.9891%
H2A1: K15AC, % of peptide pool [7, 10]: 0.001748%
H2A1: K15UB, % of peptide pool [7, 10]: 0%
H2A1: K15UN, % of peptide pool [7, 10]: 99.9983%
H2A3: K13AC, % of peptide pool [7, 10]: 0.03196%
H2A3: K13UN, % of peptide pool [7, 10]: 99.968%
H2A3: K15AC, % of peptide pool [7, 10]: 0.03362%
H2A3: K15UB, % of peptide pool [7, 10]: 0%
H2A3: K15UN, % of peptide pool [7, 10]: 99.9664%
H2A: K5AC, % of peptide pool [7, 10]: 12.5375%
H2A: K5UN, % of peptide pool [7, 10]: 87.4625%
H2A: K9AC, % of peptide pool [7, 10]: 1.353%
H2A: K9UN, % of peptide pool [7, 10]: 98.6475%
H2A: K36AC, % of peptide pool [7, 10]: 0.0347%
H2A: K36UN, % of peptide pool [7, 10]: 99.9653%
H3: K9AC, % of peptide pool [7, 10]: 0.6876%
H3: K9ME1, % of peptide pool [7, 10]: 38.1257%
H3: K9ME2, % of peptide pool [7, 10]: 23.7135%
H3: K9ME3, % of peptide pool [7, 10]: 2.367%
H3: K9UN, % of peptide pool [7, 10]: 35.1066%
H3: K14AC, % of peptide pool [7, 10]: 29.2531%
H3: K14UN, % of peptide pool [7, 10]: 70.7469%
H3: K18AC, % of peptide pool [7, 10]: 10.1375%
H3: K18ME1, % of peptide pool [7, 10]: 0.2014%
H3: K18UN, % of peptide pool [7, 10]: 89.6611%
H3: K23AC, % of peptide pool [7, 10]: 16.6835%
H3: K23ME1, % of peptide pool [7, 10]: 0.02213%
H3: K23UN, % of peptide pool [7, 10]: 83.2943%
H3: K56AC, % of peptide pool [7, 10]: 0.1265%
H3: K56ME1, % of peptide pool [7, 10]: 0.3038%
H3: K56UN, % of peptide pool [7, 10]: 99.5697%
H3: K64AC, % of peptide pool [7, 10]: 0.01464%
H3: K64UN, % of peptide pool [7, 10]: 99.9854%
H3: K79AC, % of peptide pool [7, 10]: 0.6828%
H3: K79ME1, % of peptide pool [7, 10]: 14.7289%
H3: K79ME2, % of peptide pool [7, 10]: 6.113%
H3: K79ME3, % of peptide pool [7, 10]: 8.372%
H3: K79UN, % of peptide pool [7, 10]: 70.1029%
H3: K122AC, % of peptide pool [7, 10]: 0.1106%
H3: K122UN, % of peptide pool [7, 10]: 99.8894%
H3: Q19ME1, % of peptide pool [7, 10]: 0.008159%
H3: Q19UN, % of peptide pool [7, 10]: 99.9918%
H3: Q55ME1, % of peptide pool [7, 10]: 0.125%
H3: Q55UN, % of peptide pool [7, 10]: 99.875%
H3: R42ME2, % of peptide pool [7, 10]: 2.022%
H3: R42UN, % of peptide pool [7, 10]: 97.9783%
H3: R49ME2, % of peptide pool [7, 10]: 5.836%
H3: R49UN, % of peptide pool [7, 10]: 94.1642%
H3R2UN: K4AC, % of peptide pool [7, 10]: 0.0493%
H3R2UN: K4ME1, % of peptide pool [7, 10]: 17.3555%
H3R2UN: K4ME2, % of peptide pool [7, 10]: 0.1607%
H3R2UN: K4ME3, % of peptide pool [7, 10]: 0.06122%
H3R2UN: K4UN, % of peptide pool [7, 10]: 82.3733%
H3R2UN: Q5ME1, % of peptide pool [7, 10]: 0.0589%
H3R2UN: Q5UN, % of peptide pool [7, 10]: 99.9411%
H3.1: K27AC, % of peptide pool [7, 10]: 1.848%
H3.1: K27ME1, % of peptide pool [7, 10]: 50.2872%
H3.1: K27ME2, % of peptide pool [7, 10]: 19.0002%
H3.1: K27ME3, % of peptide pool [7, 10]: 2.587%
H3.1: K27UN, % of peptide pool [7, 10]: 26.2781%
H3.1: K36AC, % of peptide pool [7, 10]: 0.1934%
H3.1: K36ME1, % of peptide pool [7, 10]: 15.1441%
H3.1: K36ME2, % of peptide pool [7, 10]: 47.7578%
H3.1: K36ME3, % of peptide pool [7, 10]: 20.1942%
H3.1: K36UN, % of peptide pool [7, 10]: 16.7105%
H3.3: K27AC, % of peptide pool [7, 10]: 4.526%
H3.3: K27M, % of peptide pool [7, 10]: 0%
H3.3: K27ME1, % of peptide pool [7, 10]: 50.6483%
H3.3: K27ME2, % of peptide pool [7, 10]: 13.3962%
H3.3: K27ME3, % of peptide pool [7, 10]: 4.205%
H3.3: K27UN, % of peptide pool [7, 10]: 27.2241%
H3.3: K36AC, % of peptide pool [7, 10]: 1.988%
H3.3: K36ME1, % of peptide pool [7, 10]: 13.5047%
H3.3: K36ME2, % of peptide pool [7, 10]: 50.9616%
H3.3: K36ME3, % of peptide pool [7, 10]: 19.8606%
H3.3: K36UN, % of peptide pool [7, 10]: 13.6847%
H4: K5AC, % of peptide pool [7, 10]: 6.718%
H4: K5UN, % of peptide pool [7, 10]: 93.2819%
H4: K8AC, % of peptide pool [7, 10]: 9.0591%
H4: K8UN, % of peptide pool [7, 10]: 90.9409%
H4: K12AC, % of peptide pool ([7]; 2102EP cells, Mod Spec raw data, histone H4 K12 acetylated): 5.085 % of peptide pool
H4: K12UN, % of peptide pool ([7]; 2102EP cells, Mod Spec raw data, histone H4 K12 unmodified): 94.9152 % of peptide pool
H4: K16AC, % of peptide pool ([7]; 2102EP cells, Mod Spec raw data, histone H4 K16 acetylated): 42.3745 % of peptide pool
H4: K16UN, % of peptide pool ([7]; 2102EP cells, Mod Spec raw data, histone H4 K16 unmodified): 57.6255 % of peptide pool
H4: K20AC, % of peptide pool ([7]; 2102EP cells, Mod Spec raw data, histone H4 K20 acetylated): 21.754 % of peptide pool
H4: K20ME2, % of peptide pool ([7]; 2102EP cells, Mod Spec raw data, histone H4 K20 dimethylated): 43.6517 % of peptide pool
H4: K20ME1, % of peptide pool ([7]; 2102EP cells, Mod Spec raw data, histone H4 K20 monomethylated): 4.449 % of peptide pool
H4: K20ME3, % of peptide pool ([7]; 2102EP cells, Mod Spec raw data, histone H4 K20 trimethylated): 1.292 % of peptide pool
H4: K20UN, % of peptide pool ([7]; 2102EP cells, Mod Spec raw data, histone H4 K20 unmodified): 28.8535 % of peptide pool
change of histone modifications of the expected mode of action (Mod Spec) ([7]; 2102EP, EC50, 16 h, vs solvent control): general decrease in histone acetylation
GJD3 Log2 fold change vs. DMSO [8, 11]: 3.31
GLIPR1L1 Log2 fold change vs. DMSO [8, 11]: -3.59
GOLGA6A Log2 fold change vs. DMSO [8, 11]: -4.35
MTRNR2L8 Log2 fold change vs. DMSO [8, 11]: 3.16
NCKAP1L Log2 fold change vs. DMSO [8, 11]: -3.90
TAC1 Log2 fold change vs. DMSO [8, 11]: 3.33
A1BG Log2 fold change vs. DMSO ([8]; unsorted data): 0.41
A1CF Log2 fold change vs. DMSO ([8]; unsorted data): 1.13
A2M Log2 fold change vs. DMSO ([8]; unsorted data): -0.80
CREB, STAT3 and STAT5 phosphorylation and total levels of β-Catenin and HSP60 [9]: decreased
ERK1/2 phosphorylation [9]: decreased
